# From the NIST ThermoML archive (doi:10.1021/acs.jced.9b00100)
# ± gives the expanded uncertainty stated by the source.
# Assays:
# [1] = Liquid, Ebulliometric method (Recirculating still)
# [2] = refractive index (Na D-line) (dimensionless); conditions: 293.15 K; 101.33 kPa; Liquid; Standard Abbe refractometry
SMILES,vapor or sublimation pressure ([1]; 342.95 K),vapor or sublimation pressure ([1]; 352.65 K),vapor or sublimation pressure ([1]; 362.55 K),refractive index [2],vapor or sublimation pressure ([1]; 342.34 K),vapor or sublimation pressure ([1]; 352.05 K),vapor or sublimation pressure ([1]; 361.65 K)
CCCCO [butan-1-ol],13.4 ± 0.24 kPa,21.4 ± 0.24 kPa,33.4 ± 0.25 kPa,1.3989 ± 0.002,–,–,–
CCCC(C)=O [pentan-2-one],34.3 ± 0.34 kPa,48.7 ± 0.27 kPa,68.1 ± 0.31 kPa,1.3893 ± 0.002,32.7 ± 0.34 kPa,47.8 ± 0.27 kPa,66.2 ± 0.31 kPa
CCCO [propan-1-ol],–,–,–,1.3848 ± 0.002,31.5 ± 0.29 kPa,49.5 ± 0.31 kPa,73.2 ± 0.33 kPa
